# Assay results from patent US9249147B2, “Tyrosine kinase inhibitors” (CHEMBRIDGE CORPORATION, priority 2008, dated 2016).
# Tests used:
# [1] = Acute IV toxicity in mice; format: in vivo; settings: 1 mg/kg intravenously, 24 hour observation
# [2] = Solubility in acidic aqueous formulation vehicle; format: physicochemical; settings: pH 4-6
# Experimental: The solubility of compound (II) in aqueous buffers has been tested at Cerep, as part of ADMET Study 13170. […] Such aqueous solubility was at least as good as or higher than a typical one for a small molecule, ATP-competitive kinase inhibitor. The compound has much higher aqueous solubility at lower pH. 20-50 mM acetic or tartaric acid (pH 4-6) was used to dissolve the compound at concentrations up to 5 mg/ml (or ˜10 mM); this type of formulation was used for our animal toxicity and PK studies. Compound (II) was also well soluble in such organic solvents as DMSO or N-methyl pyrrolidone and can be subsequently solubilized in aqueous formulations containing 2% Tween 80 or 5-20% Solutol HS15.
# [3] = Maximum Tolerated Dose toxicity study in mice; settings: both, CD-1, mouse, in vivo, 14 days
# Experimental: The toxicity study in mice (Maximum Tolerated Dose) was done with CD-1 strain of mice in groups of 50% male-50% female animals (10 animals per group) at the dosing levels of 2.5, 5, 10, and 20 mg/kg (intarperitoneal) and 5 and 10 mg/kg (peroral). Animals were dosed for 14 days, bid (the actual daily doses were twice those shown) and observed without dosing for additional 14 days. […].
# Karpas299 = experiment: Cell proliferation inhibition, ALCL line Karpas299; format: cell-based; settings: Homo sapiens, KARPAS-299; Example 4, most sensitive cell lines; read-out: Proliferation IC50 Karpas299
# Procedure, shortened: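 NPM-ALK-positive Karpas-299 cells (2×10^4 per well) were treated with compound at final concentrations of 25 to 0.78125 μM, with DMSO-only controls. Proliferation and viability were read colorimetrically by XTT reduction to formazan.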
smiles,measurement,setting,value
Cc1ccc(F)cc1C[C@H](C)Nc1cc[nH]c(=O)c1-c1nc2cc3c(cc2[nH]1)C(=O)N(CCN1CCCC1)C3 [compound (II)],Acute IV toxicity,[1],no signs of toxicity were observed
same,Concentration dissolved in 20-50 mM acetic or tartaric acid,[2],up to 5 mg/ml
same,Adverse effects at 5 and 10 mg/kg oral,[3],No adverse effects were observed
same,Tolerability at 2.5 or 5 mg/kg IP,[3],safe
same,Tolerability at 10 and 20 mg/kg IP,[3],exceeded MTD
same,IC50,Karpas299,5 to 10 nM
